Tests used:
PI3K = PI3K (Homo sapiens, UniProt P42336); test: Fluorescence polarization assay for PI3K; type: biochemical; conditions: PI3Kα; read-out: PI3Kα IC50;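 also: PI3K kinase reaction on PIP2 with ATP, 30-60 min, product sensed by GST-GRP with red probe in fluorescence polarization (mP), controls without enzyme and at zero time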
prostate line LNCap = test: In vitro cell culture growth assay (MTS), LNCap; type: cell-based, human; conditions: Homo sapiens, LNCaP, 72 h, LNCap cells, three days after drug treatment;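 also: viable cell density read by absorbance at 490 nm, growth expressed as percent of vehicle-treated cells on the same plate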
breast line MDA468 = test: In vitro cell culture growth assay (MTS), MDA468; type: cell-based, human; conditions: Homo sapiens, 72 h, MDA468 cells, three days after drug treatment
Method in brief: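 Growth measured as percent of same-plate vehicle control by MTS metabolic dye conversion (A490). Breast MDA468 and prostate LNCap cells, plated a day ahead, were exposed to compounds for 3 days.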

Chain of PI3K (P42336 whole entry): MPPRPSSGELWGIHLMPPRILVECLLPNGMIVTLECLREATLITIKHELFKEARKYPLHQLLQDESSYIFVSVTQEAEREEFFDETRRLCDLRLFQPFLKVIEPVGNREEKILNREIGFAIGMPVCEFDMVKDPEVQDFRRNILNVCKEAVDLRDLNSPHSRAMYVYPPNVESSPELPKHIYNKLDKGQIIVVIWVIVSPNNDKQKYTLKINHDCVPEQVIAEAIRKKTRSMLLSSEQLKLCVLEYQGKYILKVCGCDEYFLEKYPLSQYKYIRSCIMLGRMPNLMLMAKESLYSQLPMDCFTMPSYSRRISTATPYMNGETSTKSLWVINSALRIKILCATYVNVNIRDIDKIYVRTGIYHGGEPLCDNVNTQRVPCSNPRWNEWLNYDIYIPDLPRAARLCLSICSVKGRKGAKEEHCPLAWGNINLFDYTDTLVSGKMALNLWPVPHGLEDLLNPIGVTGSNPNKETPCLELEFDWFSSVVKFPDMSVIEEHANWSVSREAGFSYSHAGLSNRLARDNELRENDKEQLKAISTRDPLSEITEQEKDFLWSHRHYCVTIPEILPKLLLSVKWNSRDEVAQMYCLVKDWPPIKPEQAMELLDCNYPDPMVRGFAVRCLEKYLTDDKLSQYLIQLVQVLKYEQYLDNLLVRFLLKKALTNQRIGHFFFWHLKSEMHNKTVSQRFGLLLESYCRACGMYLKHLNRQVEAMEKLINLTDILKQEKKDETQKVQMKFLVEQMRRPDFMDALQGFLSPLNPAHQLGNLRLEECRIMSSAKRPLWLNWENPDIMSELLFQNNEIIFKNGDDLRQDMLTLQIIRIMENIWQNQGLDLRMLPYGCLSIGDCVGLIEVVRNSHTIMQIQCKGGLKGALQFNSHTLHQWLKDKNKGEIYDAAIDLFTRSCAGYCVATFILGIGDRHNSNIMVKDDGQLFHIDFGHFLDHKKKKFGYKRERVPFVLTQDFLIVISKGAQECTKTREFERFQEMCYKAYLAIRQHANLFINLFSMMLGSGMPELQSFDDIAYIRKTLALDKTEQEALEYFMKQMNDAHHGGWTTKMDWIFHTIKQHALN
Chain of PI3K (P27986 whole entry partner): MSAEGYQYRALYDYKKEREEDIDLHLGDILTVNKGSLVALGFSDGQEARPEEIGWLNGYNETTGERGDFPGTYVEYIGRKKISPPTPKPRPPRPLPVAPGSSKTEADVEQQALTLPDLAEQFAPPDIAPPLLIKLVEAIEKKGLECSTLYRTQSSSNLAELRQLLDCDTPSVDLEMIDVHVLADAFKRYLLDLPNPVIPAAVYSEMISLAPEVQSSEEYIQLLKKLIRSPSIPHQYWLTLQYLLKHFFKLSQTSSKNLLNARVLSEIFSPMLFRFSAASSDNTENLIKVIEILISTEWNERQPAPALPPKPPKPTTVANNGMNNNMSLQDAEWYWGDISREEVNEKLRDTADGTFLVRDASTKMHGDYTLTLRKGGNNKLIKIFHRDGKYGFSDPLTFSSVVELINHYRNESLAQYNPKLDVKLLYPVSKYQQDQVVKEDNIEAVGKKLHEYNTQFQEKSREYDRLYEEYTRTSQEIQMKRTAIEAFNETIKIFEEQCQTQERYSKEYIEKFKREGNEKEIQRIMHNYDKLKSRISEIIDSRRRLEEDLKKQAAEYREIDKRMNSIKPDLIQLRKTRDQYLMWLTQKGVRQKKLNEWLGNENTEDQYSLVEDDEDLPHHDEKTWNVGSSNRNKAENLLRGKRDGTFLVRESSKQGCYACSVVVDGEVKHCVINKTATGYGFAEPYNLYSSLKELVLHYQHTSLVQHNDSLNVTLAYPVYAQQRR

SMILES | IC50 (PI3K) | IC50 (prostate line LNCap) | IC50 (breast line MDA468)
O=C(NO)Nc1ccc(-c2nc(N3CCOCC3)c3cnn(C4CCN(Cc5ccccc5)CC4)c3n2)cc1 [Compound 310, 1-{4-[1-(1-benzylpiperidin-4-yl)-4-morpholin-4-yl-1H-pyrazolo[3,4-d]pyrimidin-6-yl]phenyl}-3-hydroxyurea] | 199 nM | 100 nM | 1100 nM
C#CCNC(=O)Nc1ccc(-c2nc(N3CCOCC3)c3cnn(C4CCN(Cc5ccccc5)CC4)c3n2)cc1 [Compound 312, 1-{4-[1-(1-benzylpiperidin-4-yl)-4-morpholin-4-yl-1H-pyrazolo[3,4-d]pyrimidin-6-yl]phenyl}-3-prop-2-yn-1-ylurea] | 173 nM | 400 nM | 3900 nM
O=C(NO)Nc1ccc(-c2nc(N3CCOCC3)c3cnn(C4CCN(Cc5cccnc5)CC4)c3n2)cc1 [Compound 317, 1-hydroxy-3-(4-{4-morpholin-4-yl-1-[1-(pyridin-3-ylmethyl)piperidin-4-yl]-1H-pyrazolo[3,4-d]pyrimidin-6-yl}phenyl)urea] | 259 nM | 1100 nM | 1500 nM
Nc1ccc(-c2nc(N3CCOCC3)c3cnn(C4CCC5(CC4)OCCO5)c3n2)cc1 [Compound 320, 4-[1-(1,4-dioxaspiro[4.5]dec-8-yl)-4-morpholin-4-yl-1H-pyrazolo[3,4-d]pyrimidin-6-yl]aniline] | 2050 nM | 1100 nM | 7200 nM
Nc1ccc(-c2nc(N3CCOCC3)c3cnn(C4CCN(Cc5ccccc5)CC4)c3n2)cc1F [Compound 347, 4-[1-(1-benzylpiperidin-4-yl)-4-morpholin-4-yl-1H-pyrazolo[3,4-d]pyrimidin-6-yl]-2-fluoroaniline] | 1650 nM | 2000 nM | 4000 nM
O=C(Nc1ccncc1)Nc1ccc(-c2nc(N3CCOCC3)c3cnn(C4CCN(Cc5cccnc5)CC4)c3n2)cc1F [Compound 352, 1-(2-fluoro-4-{4-morpholin-4-yl-1-[1-(pyridin-3-ylmethyl)piperidin-4-yl]-1H-pyrazolo[3,4-d]pyrimidin-6-yl}phenyl)-3-pyridin-4-ylurea] | 35 nM | 27 nM | 100 nM
O=C(Nc1ccc(-c2nc(N3CCOCC3)c3cnn(C4CCN(Cc5cccnc5)CC4)c3n2)cc1)Nc1ccsc1 [Compound 375, 1-(4-{4-morpholin-4-yl-1-[1-(pyridin-3-ylmethyl)piperidin-4-yl]-1H-pyrazolo[3,4-d]pyrimidin-6-yl}phenyl)-3-(3-thienyl)urea] | 10 nM | 34 nM | 100 nM
CNC(=O)Nc1ccc(-c2nc(N3CCOCC3)c3cnn(C4CCN(C)CC4)c3n2)cc1 [Compound 401, 1-methyl-3-{4-[1-(1-methylpiperidin-4-yl)-4-morpholin-4-yl-1H-pyrazolo[3,4-d]pyrimidin-6-yl]phenyl}urea] | 211 nM | 1000 nM | 3800 nM
CNC(=O)Nc1ccc(-c2nc(N3CCOCC3)c3cnn(C4CCN(C(=O)c5cccnc5Cl)CC4)c3n2)cc1 [Compound 425, 1-[4-(1-{1-[(2-chloropyridin-3-yl)carbonyl]piperidin-4-yl}-4-morpholin-4-yl-1H-pyrazolo[3,4-d]pyrimidin-6-yl)phenyl]-3-methylurea] | 100 nM | 80 nM | 500 nM
CNC(=O)Nc1ccc(-c2nc(N3CCOCC3)c3cnn(C4CCN(Cc5ccncc5)CC4)c3n2)cc1 [Compound 426, 1-methyl-3-(4-{4-morpholin-4-yl-1-[1-(pyridin-4-ylmethyl)piperidin-4-yl]-1H-pyrazolo[3,4-d]pyrimidin-6-yl}phenyl)urea] | 112 nM | 60 nM | 700 nM
CNC(=O)Nc1ccc(-c2nc(N3CCOCC3)c3cnn(C4CCN(Cc5ccc(F)cc5)CC4)c3n2)cc1 [Compound 427, 1-(4-{1-[1-(4-fluorobenzyl)piperidin-4-yl]-4-morpholin-4-yl-1H-pyrazolo[3,4-d]pyrimidin-6-yl}phenyl)-3-methylurea] | 34 nM | 27 nM | 200 nM
CNC(=O)Nc1ccc(-c2nc(N3CCOCC3)c3cnn(C4CCN(Cc5cccc(F)c5)CC4)c3n2)cc1 [Compound 428, 1-(4-{1-[1-(3-fluorobenzyl)piperidin-4-yl]-4-morpholin-4-yl-1H-pyrazolo[3,4-d]pyrimidin-6-yl}phenyl)-3-methylurea] | 30 nM | 27 nM | 200 nM
O=C1Cc2cc(-c3nc(N4CCOCC4)c4cnn(-c5ccccc5)c4n3)ccc2N1 [Compound 433, 5-(4-morpholin-4-yl-1-phenyl-1H-pyrazolo[3,4-d]pyrimidin-6-yl)-1,3-dihydro-2H-indol-2-one] | 1030 nM | 60000 nM | 60000 nM
Nc1ccnc(-c2nc(N3CCOCC3)c3cnn(C4CCN(C(=O)c5cccnc5)CC4)c3n2)c1 [Compound 434, 2-{4-morpholin-4-yl-1-[1-(pyridin-3-ylcarbonyl)piperidin-4-yl]-1H-pyrazolo[3,4-d]pyrimidin-6-yl}pyridin-4-amine] | 6660 nM | 39000 nM | 60000 nM
Nc1ccc(-c2nc(N3CCOCC3)c3cnn(C4CCN(C(=O)c5cccnc5)CC4)c3n2)nc1 [Compound 435, 6-{4-morpholin-4-yl-1-[1-(pyridin-3-ylcarbonyl)piperidin-4-yl]-1H-pyrazolo[3,4-d]pyrimidin-6-yl}pyridin-3-amine] | 4040 nM | 45000 nM | 60000 nM
Nc1cccc(-c2nc(N3CCOCC3)c3cnn(C4CCN(C(=O)c5cccnc5)CC4)c3n2)n1 [Compound 436, 6-{4-morpholin-4-yl-1-[1-(pyridin-3-ylcarbonyl)piperidin-4-yl]-1H-pyrazolo[3,4-d]pyrimidin-6-yl}pyridin-2-amine] | 4990 nM | 9800 nM | 25000 nM
Nc1ccnc(-c2nc(N3CCOCC3)c3cnn(-c4ccccc4)c3n2)c1 [Compound 437, 2-(4-morpholin-4-yl-1-phenyl-1H-pyrazolo[3,4-d]pyrimidin-6-yl)pyridin-4-amine] | 1460 nM | 60000 nM | 60000 nM
COC(=O)Nc1ccc(-c2nc(N3CCOCC3)c3cnn(C4CCN(C(=O)N5CCN(C)CC5)CC4)c3n2)cc1 [Compound 448, methyl [4-(1-{1-[(4-methylpiperazin-1-yl)carbonyl]piperidin-4-yl}-4-morpholin-4-yl-1H-pyrazolo[3,4-d]pyrimidin-6-yl)phenyl]carbamate] | 725 nM | 900 nM | 1700 nM
COC(=O)Nc1ccc(-c2nc(N3CCOCC3)c3cnn(C4CCN(Cc5ccc(F)cc5)CC4)c3n2)cc1 [Compound 450, methyl (4-{1-[1-(4-fluorobenzyl)piperidin-4-yl]-4-morpholin-4-yl-1H-pyrazolo[3,4-d]pyrimidin-6-yl}phenyl)carbamate] | 750 nM | 1200 nM | 2600 nM
COC(=O)Nc1ccc(-c2nc(N3CCOCC3)c3cnn(C4CCN(Cc5ccc(Cl)cc5)CC4)c3n2)cc1 [Compound 451, methyl (4-{1-[1-(4-chlorobenzyl)piperidin-4-yl]-4-morpholin-4-yl-1H-pyrazolo[3,4-d]pyrimidin-6-yl}phenyl)carbamate] | 389 nM | 2000 nM | 9000 nM
COC(=O)Nc1ccc(-c2nc(N3CCOCC3)c3cnn(C4CCN(Cc5cccnc5OC)CC4)c3n2)cc1 [Compound 452, methyl [4-(1-{1-[(2-methoxypyridin-3-yl)methyl]piperidin-4-yl}-4-morpholin-4-yl-1H-pyrazolo[3,4-d]pyrimidin-6-yl)phenyl]carbamate] | 1830 nM | 600 nM | 2200 nM
COC(=O)Nc1ccc(-c2nc(N3CCOCC3)c3cnn(C4CCN(Cc5ccccc5Cl)CC4)c3n2)cc1 [Compound 455, methyl (4-{1-[1-(2-chlorobenzyl)piperidin-4-yl]-4-morpholin-4-yl-1H-pyrazolo[3,4-d]pyrimidin-6-yl}phenyl)carbamate] | 786 nM | 2500 nM | 5200 nM
COC(=O)Nc1ccc(-c2nc(N3CCOCC3)c3cnn(C4CCN(CC(N)=O)CC4)c3n2)cc1 [Compound 456, methyl (4-{1-[1-(2-amino-2-oxoethyl)piperidin-4-yl]-4-morpholin-4-yl-1H-pyrazolo[3,4-d]pyrimidin-6-yl}phenyl)carbamate] | 1430 nM | 1300 nM | 3200 nM
COC(=O)Nc1ccc(-c2nc(N3CCOCC3)c3cnn(C4CCN(CC(=O)c5ccccc5)CC4)c3n2)cc1 [Compound 457, methyl (4-{4-morpholin-4-yl-1-[1-(2-oxo-2-phenylethyl)piperidin-4-yl]-1H-pyrazolo[3,4-d]pyrimidin-6-yl}phenyl)carbamate] | 585 nM | 500 nM | 1800 nM
C=CC(=O)N1CCC(n2ncc3c(N4CCOCC4)nc(-c4ccc(NC(=O)OC)cc4)nc32)CC1 [Compound 458, methyl {4-[1-(1-acryloylpiperidin-4-yl)-4-morpholin-4-yl-1H-pyrazolo[3,4-d]pyrimidin-6-yl]phenyl}carbamate] | 1980 nM | 930 nM | 1200 nM
COC(=O)Nc1ccc(-c2nc(N3CCOCC3)c3cnn(C4CCNCC4)c3n2)cc1 [Compound 459, methyl [4-(4-morpholin-4-yl-1-piperidin-4-yl-1H-pyrazolo[3,4-d]pyrimidin-6-yl)phenyl]carbamate] | 1070 nM | 1700 nM | 3000 nM
Nc1ccc(-c2nc(N3CCOCC3)c3cnn(C4CCN(C(=O)c5cccnc5)CC4)c3n2)c(F)c1 [Compound 460, 3-fluoro-4-{4-morpholin-4-yl-1-[1-(pyridin-3-ylcarbonyl)piperidin-4-yl]-1H-pyrazolo[3,4-d]pyrimidin-6-yl}aniline] | 4030 nM | 4900 nM | 14000 nM
